Format in all cases: in vivo, human
The subject of data set [1] is patients with symptomatic non-obstructive HCM (nHCM) or HCM with MVO. The data set is described as follows: Phase 2 trial (Example 2): exploratory responder analysis in subgroups. The method, then: An exploratory responder analysis was performed to consider treatment effect in certain subgroups of patients.
Data set [2] shares this test system. The data set is described as follows: Phase 2 trial (Example 2): NYHA Functional Classification. From the text: Other exploratory endpoints included: (i) Change in NYHA Functional Classification from baseline to Week 10; and (ii) For patients with baseline NYHA Class III disease, percentage with improvement to NYHA Class I or II disease at Week 10.
Data set [3] has the same test system. The experiment in a line: Phase 2 trial (Example 2): echocardiography (LVEF, diastolic function). The method, then: Echocardiograms obtained on day 1 of treatment, at weeks 2, 4, 6, and 10 of treatment, and two weeks after the last dose were analyzed for several key structural and physiologic metrics; measurements of N-terminal prohormone of brain natriuretic peptide (NT-proBNP), and cardiac troponin I were also monitored. Ambulatory cardiac monitoring was conducted one week before day 1 of treatment and at week 9.
The secondary PD endpoints of the study were: Slope of the relationship of the plasma concentration of CK-3773274 to the change from baseline in the resting LVEF.
Echocardiography parameters were evaluated by the core laboratory at baseline and during treatment at the Weeks 2, 4, 6, and 10 and after a 2-week washout at Week 12 (follow-up visit).
The exploratory PD endpoints included but were not limited to: (i) The relationship of plasma concentration ranges of CK-3773274 to LVEF, LVFS, global longitudinal strain (GLS); (ii) Observed values and change from baseline in the echocardiography parameters described in Table 13 and evaluated by the core laboratory during treatment at Weeks 2, 4, 6, 10, and 12; (iii) Change in NT-proBNP from baseline to Week 10; (iv) Change in hs-cTnI from baseline to Week 10; (v) Proportion of patients with LVEF ≥50% and ≥50% reduction from baseline NT-proBNP.

Data set [4] can be described thus: Phase 1 plasma pharmacokinetics, food-effect cohort. The settings on record: 10 mg; for AUCinf / AUC24 / Cmax: geometric mean; for CL/F / t1/2: mean ± SD. The method, then:
Food-effect cohort. […] Participants were randomized in a 1:1 ratio to 1 of 2 sequences: fasted/fed or fed/fasted.
Pharmacokinetic analyses. For all study groups, blood samples for PK assessment were obtained pre-dose, up to 12 times daily on day 1, and then at regular intervals throughout the study. Blood samples were collected according to the following schedule: SAD Cohorts: Day 1: pre-dose and 0.25, 0.5, 1, 1.5, 2, 2.5, 3, 4, 6, 8, 12, 16, 24, 36, 48, 72, 96, and 216 h post dose. […] CYPD6-PM Cohort: Day 1: pre-dose and 0.25, 0.5, 1, 1.5, 2, 2.5, 3, 4, 6, 8, 12, 16, 24, 36, 48, 72, 96, 216, 312, and 552 h post dose. Food-Effect Cohort: Day 1: pre-dose and 0.25, 0.5, 1, 1.5, 2, 2.5, 3, 4, 6, 8, 12, 16, 24, 36, 48, 72, 96, 144, and 216 h post dose. Standard non-compartmental methods were used to calculate PK parameters using Phoenix® WinNonlin® Version 7.0; actual sample collection times were utilized.

The mark [5] stands for this setting: food-effect cohort, Fasted, n = 4.
Where [6] appears, read: food-effect cohort, Fasted, n = 10.
Setting [7] is: food-effect cohort, Fed, n = 12.

The results in this text go back to patent US20240091203A1, “METHODS FOR TREATING NON-OBSTRUCTIVE HYPERTROPHIC CARDIOMYOPATHY” (Cytokinetics, Incorporated, priority 2022, published 2024).

What is called CL/F is the apparent clearance, not corrected for the fraction that reaches the circulation.

Entries after “also recorded” stand apart in the source; their conditions may differ.

As for `CCc1nc(-c2ccc3c(c2)CC[C@H]3NC(=O)c2cnn(C)c2)no1` [aficamten, (R)—N-(5-(5-ethyl-1,2,4-oxadiazol-3-yl)-2,3-dihydro-1H-inden-1-yl)-1-methyl-1H-pyrazole-4-carboxamide], the “responder analysis: treatment effect in other subgroups” value in data set [1] (beta-blockers or not, elevated TnI or E/e′ or not, genetic or family history of HCM or not) is “Consistent treatment effects”. The “responder analysis: treatment effect by BMI” value in data set [1] (patients with BMI ≥30 compared to BMI <30) was “potential differential treatment effect”. Further, the “patients with a change of ≥1 NYHA Class” value in data set [2] (22 of 41 patients, interim) was determined as 54%. In data set [2] (Week 10, second interim, p=0.011 vs assumed 37% placebo effect), the “patients with functional improvement of ≥1 NYHA class” value was determined as 56%. In addition, the “patients achieving NYHA Class 1 (asymptomatic)” value in data set [2] (by Week 10, second interim) is given as 28%. For the same compound, in data set [2] (interim), the “patients who improved from NYHA Class II to I” value was 8 patients, the “patients who improved from NYHA Class III to I” value is 4 patients and the “patients who improved from NYHA Class III to II” value is recorded as 12 patients. In data set [3] (baseline to week 10, second interim), the “Doppler measures of diastolic function (lateral e′; lateral E/e′; septal E/e′)” value is on record as “generally improved”. Also, the “change in LVEF from baseline to Week 10” value in data set [3] (second interim, N = 41) is −5.5%. Besides, the “effect of food on pharmacokinetics” value in data set [4] (fed (high-fat breakfast) versus fasted) is on record as “Neither food nor CYP2D6-PM phenotype had a clinically meaningful impact; also recorded: little effect on AUC; also recorded: no significant effect of food”. Besides, the “increase in Cmax when taken with food” value in data set [4] (fed versus fasted) is listed as “approximately 30%”. Besides, in data set [4] (setting [5]), the AUCinf worked out at 3674 ng·h/mL, the CL/F came to 2.8 ± 0.6 L/h and the t1/2 worked out at 84.4 ± 16.4 h. For the same compound, in data set [4] (setting [6]), the AUC24 was 601 (33) ng · h/ml and the Cmax was found to be 50.6 ng/mL. For the same compound, the Tmax in data set [4] (food-effect cohort, Fasted, median, n = 10) is 2.3 h. In data set [4] (food-effect cohort, Fed, n = 7), this compound yielded an AUCinf of 3413 ng·h/mL, a CL/F of 3.1 ± 0.9 L/h and a t1/2 of 78.0 ± 8.1 h. For the same compound, in data set [4] (setting [7]), the AUC24 is reported as 631 (25) ng · h/ml and the Cmax worked out at 65.0 ng/mL.
